Some test systems named below: A549; CAKI-1; COLO 205; HCC 2998; HCT-15; HOP-62; HT-29; K562; M14; MDA-MB-435; Malme-3M; RPMI-8226; RXF 393; SF-295; SK-MEL-28; SK-MEL-2; SN12C; TK-10.
Test in all cases: NCI anticancer screen, dose series, 48 h

SMILES strings stand for the structures.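 Method: 48-hour compound exposure of cells in 96-well plates, five concentrations, linear interpolation of endpoints. GI50 = concentration required for 50% inhibition of growth.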 Activity calls are given as the source filed them. Cut-off read from the data, not from the text of the source: active = GI50 up to about 1.1 µM and inactive = higher. Bounds are passed on as bounds.

With `CC(=O)/C(=C/NC(=S)Nc1ccccc1)C(=O)Nc1ccccc1C`, the GI50 in the assay with A549 was > 100 µM (inactive); in the assay with CAKI-1, 40.9 µM (inactive); in the assay on COLO 205, > 100 µM (inactive); in the assay on HCC 2998, > 100 µM (inactive); with HCT-15, more than 100 µM; in the assay with HOP-62, > 100 µM (inactive). The GI50 with HT-29 was 77.8 µM (inactive); in the assay on K562, 96.2 µM (inactive); with M14 it was > 100 µM (inactive); in the assay on MDA-MB-435 it was > 100 µM (inactive); with Malme-3M it was > 100 µM (inactive); with RPMI-8226, > 100 µM (inactive). Also, the GI50 in the assay on RXF 393, with SF-295, with SK-MEL-28, with SK-MEL-2, in the assay on SN12C and in the assay on TK-10 was > 100 µM (inactive) in each case.

`CN(C)c1ccc2cc3ccc(N(C)C)cc3nc2c1` [ACRIDINE ORANGE]: the GI50 with A549 is 0.927 µM (active); with CAKI-1, 1.79 µM (inactive); with COLO 205 it was 0.975 µM (active); in the assay on HCC 2998 it was 0.56 µM (active); in the assay with HCT-15, 0.467 µM; in the assay with HOP-62, 2.02 µM (inactive). Also, the GI50 is 0.403 µM (active) in the assay on HT-29; 0.397 µM (active) in the assay with K562; 3.05 µM (inactive) in the assay on M14; 1.79 µM (inactive) in the assay on MDA-MB-435; 3.86 µM (inactive) in the assay on Malme-3M; 0.527 µM (active) in the assay on RPMI-8226. The GI50 was 3.74 µM (inactive) in the assay with RXF 393; 2.08 µM (inactive) with SF-295; 3.37 µM (inactive) in the assay with SK-MEL-28; 6.18 µM (inactive) with SK-MEL-2; 0.962 µM (active) in the assay with SN12C; 2.86 µM (inactive) in the assay on TK-10.

Regarding `CC(=O)N1C(Nc2ccccc2)CCN1c1ccccc1` (centres undefined), the GI50 in the assay with A549 was > 10 µM (inactive); in the assay with CAKI-1, 8.73 µM (inactive); with COLO 205 it was > 10 µM (inactive); in the assay on HCC 2998 it was > 10 µM (inactive); in the assay with HCT-15, 3.66 µM; in the assay with HOP-62, > 10 µM (inactive). The GI50 was 5.77 µM (inactive) in the assay with HT-29; 4.04 µM (inactive) in the assay on K562; > 10 µM (inactive) in the assay with M14; 3.68 µM (inactive) in the assay on MDA-MB-435; 5.38 µM (inactive) with Malme-3M; > 10 µM (inactive) in the assay with RPMI-8226. Moreover, the GI50 in the assay on RXF 393 is > 10 µM (inactive); with SF-295, 3.96 µM (inactive); in the assay with SK-MEL-28, > 10 µM (inactive); in the assay with SK-MEL-2, > 10 µM (inactive); with SN12C, > 10 µM (inactive); with TK-10 it was > 10 µM (inactive).

Take `CC(C)(C)OC(=O)NCCCCC(NC(=O)OCc1ccccc1)C(N)=O` (centres undefined): the GI50 is > 100 µM (inactive) in the assay with A549; > 100 µM (inactive) in the assay with CAKI-1; > 100 µM (inactive) in the assay with COLO 205; > 100 µM (inactive) in the assay with HCC 2998; more than 100 µM in the assay on HCT-15; > 100 µM (inactive) in the assay with HOP-62. Besides, the GI50 in the assay with HT-29, in the assay on K562, in the assay with M14, in the assay on MDA-MB-435, with Malme-3M and in the assay with RPMI-8226 was > 100 µM (inactive) throughout. The GI50 in the assay on RXF 393, in the assay on SF-295, in the assay with SK-MEL-28, with SK-MEL-2, in the assay on SN12C and in the assay on TK-10 was > 100 µM (inactive) in each case.

For `COc1ccc2nc3ccc(OC)cc3c([S+]([O-])Cc3ccc([N+](=O)[O-])cc3)c2c1` (centres undefined), the GI50 in the assay on A549 was 25.8 µM (inactive); in the assay with CAKI-1, 15.3 µM (inactive); with COLO 205, 2.92 µM (inactive); in the assay on HCC 2998 it was 17.5 µM (inactive); with HCT-15 it was 3.19 µM; with HOP-62, 16.1 µM (inactive). In addition, the GI50 in the assay with HT-29 is 2.58 µM (inactive); in the assay on K562, 3.56 µM (inactive); in the assay with M14, 7.87 µM (inactive); with MDA-MB-435, 8.07 µM (inactive); with Malme-3M, 2.37 µM (inactive); with RPMI-8226 it was 2.61 µM (inactive). Moreover, the GI50 with RXF 393 is 5.04 µM (inactive); in the assay on SF-295, 20.6 µM (inactive); with SK-MEL-28, 5.97 µM (inactive); in the assay with SK-MEL-2, 17.9 µM (inactive); with SN12C it was 3.65 µM (inactive); in the assay on TK-10 it was 5.9 µM (inactive).

Regarding `O=[N+]([O-])c1ccc2c(/N=N/c3ccc4ccccc4c3O)c(O)cc(S(=O)(=O)O)c2c1`, the GI50 is 40.6 µM (inactive) in the assay with A549; 12.6 µM (inactive) with CAKI-1; 27.7 µM (inactive) in the assay on COLO 205; 39.5 µM (inactive) in the assay on HCC 2998; 9.93 µM in the assay on HCT-15; 24.9 µM (inactive) in the assay with HOP-62. Further, the GI50 in the assay with HT-29 was 44.5 µM (inactive); in the assay on K562 it was 20.6 µM (inactive); in the assay on M14, 6.76 µM (inactive); with MDA-MB-435, 16.7 µM (inactive); in the assay on Malme-3M it was 18.3 µM (inactive); in the assay with RPMI-8226 it was 17.8 µM (inactive). Besides, the GI50 was 17.9 µM (inactive) with RXF 393; 32 µM (inactive) in the assay with SF-295; 12 µM (inactive) in the assay on SK-MEL-28; 23 µM (inactive) in the assay with SK-MEL-2; 38.5 µM (inactive) in the assay with SN12C; > 65.3 µM (inactive) in the assay on TK-10.

In the case of `CCOC(=O)CCCN`, the GI50 with A549 was > 100 µM (inactive); with CAKI-1, > 100 µM (inactive); in the assay on COLO 205 it was > 100 µM (inactive); in the assay on HCC 2998 it was > 100 µM (inactive); with HCT-15 it was more than 100 µM; in the assay with HOP-62 it was > 100 µM (inactive). Further, the GI50 in the assay on HT-29, in the assay with K562, with M14, with MDA-MB-435, with Malme-3M and with RPMI-8226 was > 100 µM (inactive) in each case. Moreover, the GI50 in the assay on RXF 393, in the assay with SF-295, with SK-MEL-28, in the assay on SK-MEL-2, in the assay with SN12C and in the assay with TK-10 was > 100 µM (inactive) throughout.

For `Cc1ccccc1C(=O)N1CCc2c([nH]c3ccccc23)C1`, the GI50 in the assay on A549 is 35.9 µM (inactive); with CAKI-1, 24.4 µM (inactive); in the assay with COLO 205, 17.4 µM (inactive); in the assay with HCC 2998 it was 18.5 µM (inactive); with HCT-15 it was 21.3 µM; in the assay on HOP-62 it was 33.8 µM (inactive). Moreover, the GI50 with HT-29 was 18.8 µM (inactive); with K562 it was 21.4 µM (inactive); with M14, 19.4 µM (inactive); with MDA-MB-435 it was 14.4 µM (inactive); with Malme-3M, 24.8 µM (inactive); in the assay with RPMI-8226, 21.2 µM (inactive). Besides, the GI50 in the assay with RXF 393 was 18.6 µM (inactive); with SF-295 it was 29.1 µM (inactive); in the assay on SK-MEL-28 it was 28.9 µM (inactive); in the assay on SK-MEL-2, 12.8 µM (inactive); in the assay with SN12C it was 17.2 µM (inactive); with TK-10 it was 28.2 µM (inactive).
